Activity calls are given as the source filed them.
Legend:
HeLa = assay: Cytotoxicity against human HeLa cells at 50 uM; type: functional, cell-based
Candida albicans = assay: Antifungal activity against Candida albicans at 50 uM; type: functional, organism-based
Bacillus cereus = assay: Antimicrobial activity against Bacillus cereus at 50 uM; type: functional, organism-based
Escherichia coli = assay: Antimicrobial activity against Escherichia coli at 50 uM; type: functional, organism-based

Measured: Activity

CC(C)=CCc1ccc(O)c(C2c3c(O)cc(C(=O)O)cc3C(=O)N2CCO)c1O (stereo not drawn)
inactive: all assays above

O=c1c2cc3c(CO)cc4cc(O)cc(O)c4c3oc-2cc2cc(O)cc(O)c12
inactive: all assays above

— ChEMBL document CHEMBL4616654, “Irpexine, an Isoindolinone Alkaloid Produced by Coculture of Endophytic Fungi, Irpex lacteus and Phaeosphaeria oryzae” (J Nat Prod, 2020)
